Results taken from patent US8927600B2, “Compound for use in the treatment of peripheral neuropathies” (Biocodex, priority 2009, dated 2015).
Entries after “also recorded” stand apart in the source; their conditions may differ.

Key:
[1] = test system: sensitive neurons extracted from rat embryo dorsal spinal ganglions; assay: lactate dehydrogenase (LDH) released in the extracellular medium of the co-culture with or without cisplatin; type: cell-based; settings: 24 hours, FIG. 3
Description: (§1) To be more precise, they studied the survival of sensitive neurons extracted from rat embryo dorsal spinal ganglions cultured in the presence of a cytotoxic agent, cisplatin, co-applied with stiripentol.
(§2) The co-culturing, for 5 days, of sensitive neurons (˜5-10% of the cultivated cell population) associated with Schwann cells and fibroblasts (˜95-90% of the cultivated cell population) is carried out in an appropriate medium as described in Hall et al. (1997) J. Neurosci. 17:2775-2784. […]
(§3) The density of the neuritic networks (axons and dendrites) labelled by an anti-β-tubulin antibody (ref T8660, Sigma, France) is then determined by measuring their length, together with the number of cell bodies marked by means of an anti-MAP2 antibody (ref M4403, Sigma, France) as indicated by Gill & Windebank (1998) J. Clin. Invest. […] Also determined is the amount of lactate dehydrogenase (LDH) (Kit de detection (detection kit), ref 1 644 793, Roche) released in the extracellular medium, the amount of which is proportional to the number of cells which are damaged or dead owing to the cisplatin-induced cell lysis, as indicated by Koh & Choi (1987) J Neurosci Methods 20:83-90.

[2] = test system: sensitive neurons extracted from rat embryo dorsal spinal ganglions; assay: number of cell bodies (anti-MAP2 labelling) in sensitive neuron co-culture with or without cisplatin; type: cell-based; settings: 24 hours, FIG. 2
Description: as §1, §2, §3

[3] = test system: sensitive neurons extracted from rat embryo dorsal spinal ganglions; assay: density of neuritic networks (total neurite length, anti-β-tubulin labelling) in sensitive neuron co-culture with or without cisplatin; type: cell-based; settings: 24 hours, FIG. 1
Description: as §1, §2, §3

[4] = test system: uptake of gamma-aminobutyric acid (GABA); settings: cited from earlier work
[5] = test system: sensitive neurons extracted from rat embryo dorsal spinal ganglions; assay: in vitro model of peripheral neuropathy (cisplatin), overall neuroprotective activity; type: cell-based; settings: stiripentol 1-10 μM versus NGF 5 ng/ml; cisplatin 4.5 μg/ml, 24 hours
Description: as §1, §2, §3

CYP1A2 = CYP1A2 (Homo sapiens, UniProt P05177); settings: Tran et al. (1997); cited from earlier work
CYP3A4 = CYP3A4 (Homo sapiens, UniProt P08684); settings: Tran et al. (1997); cited from earlier work
[6] = in the presence of cisplatin 4.5 μg/ml, stiripentol 1, 3, 10 μM, NGF 5 ng/ml

Chain of CYP3A4 (P08684 whole entry): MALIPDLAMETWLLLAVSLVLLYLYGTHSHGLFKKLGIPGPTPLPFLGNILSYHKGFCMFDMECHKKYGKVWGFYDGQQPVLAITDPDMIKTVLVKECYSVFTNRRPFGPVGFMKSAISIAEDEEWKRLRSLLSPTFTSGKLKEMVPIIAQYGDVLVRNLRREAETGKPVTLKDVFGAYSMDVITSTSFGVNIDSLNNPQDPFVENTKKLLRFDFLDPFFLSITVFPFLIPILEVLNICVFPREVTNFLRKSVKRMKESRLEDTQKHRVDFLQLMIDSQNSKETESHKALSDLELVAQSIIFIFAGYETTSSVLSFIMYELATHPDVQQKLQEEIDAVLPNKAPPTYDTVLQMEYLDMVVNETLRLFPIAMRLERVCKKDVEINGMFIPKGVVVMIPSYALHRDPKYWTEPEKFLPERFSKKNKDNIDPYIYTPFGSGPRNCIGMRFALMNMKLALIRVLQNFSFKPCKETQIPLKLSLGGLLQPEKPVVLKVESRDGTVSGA
Chain of CYP1A2 (P05177 whole entry): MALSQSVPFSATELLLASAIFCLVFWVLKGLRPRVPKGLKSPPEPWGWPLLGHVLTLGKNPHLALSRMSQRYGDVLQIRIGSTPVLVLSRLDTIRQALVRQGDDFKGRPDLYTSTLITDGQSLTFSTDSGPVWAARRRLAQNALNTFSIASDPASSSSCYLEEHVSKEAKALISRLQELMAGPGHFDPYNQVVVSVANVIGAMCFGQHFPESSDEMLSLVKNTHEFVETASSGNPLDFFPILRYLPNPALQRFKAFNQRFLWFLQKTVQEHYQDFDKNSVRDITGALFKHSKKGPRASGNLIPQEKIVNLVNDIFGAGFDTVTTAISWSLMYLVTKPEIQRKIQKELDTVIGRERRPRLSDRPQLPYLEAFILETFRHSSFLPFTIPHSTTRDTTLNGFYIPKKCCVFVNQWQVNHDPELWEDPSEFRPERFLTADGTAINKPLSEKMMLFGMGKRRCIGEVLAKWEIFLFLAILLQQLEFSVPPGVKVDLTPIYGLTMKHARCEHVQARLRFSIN

Structure (SMILES)	effect of cisplatin on cell lysis (LDH release) ([1]; cisplatin 4.5 μg/ml alone)	effect of cisplatin on the cell bodies ([2]; cisplatin 4.5 μg/ml alone)	effect of cisplatin on the density of the neuritic networks ([3]; cisplatin 4.5 μg/ml alone)	cell release of LDH [1, 6]	inhibition of the uptake of gamma-aminobutyric acid (GABA) [4]	number of neuronal cell bodies [2, 6]	density of the neuritic networks (total length of the neurites) [3, 6]	neuroprotective activity compared with NGF [5]	inhibition of CYP1A2 (CYP1A2)	inhibition of CYP3A4 (CYP3A4)
N.N.[Cl][Pt][Cl] [cisplatin]	cell lysis	degeneration of the cell bodies	reduction in the density of the neuritic networks	–	–	–	–	–	–	–
CC(C)(C)C(O)/C=C/c1ccc2c(c1)OCO2 (stereo not shown) [stiripentol, 4,4-dimethyl-1-[(3,4-methylenedioxy)-phenyl]-1-penten-3-ol]	–	–	–	neuroprotective effect	inhibits the uptake of gamma-aminobutyric acid (GABA)	reduce the decrease	reduce the decrease in the density of the neuritic networks	neuroprotective effect equivalent to that of NGF; also recorded: neuroprotective activity of the same order as that of NGF	inhibitor	inhibitor
